Measurements published in patent US8642357B2, “Semaphorin 7A plays a critical role in TGF-β1-induced pulmonary fibrosis and alveolar destruction” (Yale University, priority 2009, dated 2014).

Test system: C57BL/6 female mice
Test: Bleomycin-induced pulmonary fibrosis and collagen accumulation
Format: in vivo
Conditions: 0.075 Unit/mouse intratracheal; most impressive 3 weeks after administration
Description: Animals were anesthetized, a median sternotomy was performed, and right heart perfusion was accomplished with calcium and magnesium-free phosphate-buffered saline (PBS). The heart and lungs were then removed en bloc. The right lung was frozen in liquid nitrogen and stored at −80° C. until used. Collagen content was determined by quantifying total soluble collagen using the Sircol Collagen Assay kit (Biocolor) according to the manufacturer's instructions. The data is expressed as the collagen content of the entire right lung.
The lungs were removed en bloc as described above, inflated at 25 cm pressure with PBS containing 0.5% low melting point agarose gel, fixed, embedded in paraffin, sectioned and stained. Hematoxylin and eosin, and Mallory's trichrome stains were performed in the Research Histology Laboratory of the Department of Pathology at the Yale University School of Medicine.
Bleomycin (0.075 Unit/mouse) or vehicle control were administered to C57BL/6 female mice as previously described by Jiang et al. (2004, J Clin Invest. 114:291-299).
Studies were also undertaken to determine if the biology of SEMA 7A that was defined using the Tg modeling system was also relevant to fibrotic responses that were induced by other stimuli. […]

Substance: Bleomycin
- Pulmonary fibrosis and collagen accumulation: significant increase
